Results taken from patent publication US9186391B2, “Cyclic peptide inhibitors of lysine-specific demethylase 1” (MUSC FOUNDATION FOR RESEARCH DEVELOPMENT, priority 2013, dated 2015).
Read-outs that look alike come from different tables or passages of the source.

What was measured:
[1] = tested on: Calu-6 lung tumor line; experiment: cells; format: cell-based, human; settings: MTS assay, 72 hours, read-out: IC50 growth inhibition in Calu-6 cells
[2] = target: T1, MAO-B (Homo sapiens, UniProt P27338); experiment: Inhibition of monoamine oxidase B in vitro; format: biochemical; settings: read-out: IC50 for inhibition against MAO-B
T1 sequence (P27338 1-520): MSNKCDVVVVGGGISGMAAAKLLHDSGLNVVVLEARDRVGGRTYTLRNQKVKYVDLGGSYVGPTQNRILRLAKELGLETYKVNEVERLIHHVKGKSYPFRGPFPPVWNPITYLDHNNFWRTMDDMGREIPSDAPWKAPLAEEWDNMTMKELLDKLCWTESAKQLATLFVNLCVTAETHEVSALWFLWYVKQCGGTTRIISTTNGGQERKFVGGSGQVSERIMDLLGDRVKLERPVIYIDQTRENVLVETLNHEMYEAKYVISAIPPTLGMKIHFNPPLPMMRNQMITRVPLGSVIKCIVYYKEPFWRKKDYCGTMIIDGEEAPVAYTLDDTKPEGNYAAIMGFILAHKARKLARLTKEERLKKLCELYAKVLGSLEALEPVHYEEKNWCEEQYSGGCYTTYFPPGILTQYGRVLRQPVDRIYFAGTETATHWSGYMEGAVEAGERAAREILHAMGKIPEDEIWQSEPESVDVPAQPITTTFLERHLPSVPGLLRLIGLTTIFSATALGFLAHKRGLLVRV
Text: (§1) Each data point is the average of three determinations±standard error.

[3] = tested on: MCF-7 breast tumor line; format: cell-based; settings: MTS assay, 72 hours; read-out: IC50 growth inhibition in MCF-7 cells
[4] = target: T2, MAO-A (Homo sapiens, UniProt P21397); experiment: Inhibition of monoamine oxidase A in vitro; format: biochemical; settings: read-out: IC50 for inhibition against MAO-A
T2 sequence (P21397 1-527): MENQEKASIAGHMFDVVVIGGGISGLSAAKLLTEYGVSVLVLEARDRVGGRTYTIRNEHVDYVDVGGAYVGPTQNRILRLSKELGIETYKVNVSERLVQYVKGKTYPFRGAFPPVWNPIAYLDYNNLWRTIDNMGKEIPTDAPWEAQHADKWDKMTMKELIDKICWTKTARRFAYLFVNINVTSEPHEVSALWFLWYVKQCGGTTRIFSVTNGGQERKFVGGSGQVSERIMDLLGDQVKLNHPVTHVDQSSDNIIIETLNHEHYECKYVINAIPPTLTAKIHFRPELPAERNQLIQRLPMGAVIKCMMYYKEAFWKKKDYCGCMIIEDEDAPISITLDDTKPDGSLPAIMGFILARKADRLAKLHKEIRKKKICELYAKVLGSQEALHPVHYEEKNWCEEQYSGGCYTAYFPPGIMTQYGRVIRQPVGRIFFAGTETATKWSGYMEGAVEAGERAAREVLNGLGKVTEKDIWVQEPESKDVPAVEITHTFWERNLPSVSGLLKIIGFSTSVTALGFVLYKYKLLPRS
Text: as §1

Row | IC50 ([1]; Homo sapiens, Calu-6) [µM] | Structure (SMILES) | IC50 [2] [µM] | IC50 [3] [µM] | IC50 [4] [µM] | IC50 [1] [µM]
1 | 10.9 | N=C(NCCCNCCCCCCCNCCCNC(=N)NC(=N)NCCC(c1ccccc1)c1ccccc1)NC(=N)NCCC(c1ccccc1)c1ccccc1 [compound 3, verlindamycin, reference compound] |  |  |  | 
2 |  | CSCC[C@H](NC(=O)[C@@H](NC(=O)[C@H](CCCNC(=N)N)NC(=O)[C@H](C)N)[C@@H](C)O)C(=O)N[C@H]1CCCCNC(=O)CC[C@@H](C(=O)N[C@H](C(=O)NCC(=O)NCC(=O)N[C@@H](CCCCN)C(=O)N[C@@H](C)C(=O)N2CCC[C@H]2C(=O)N[C@@H](CCCNC(=N)N)C(=O)N[C@@H](CCCCN)C(=O)N[C@@H](CCC(N)=O)C(=O)N[C@@H](CC(C)C)C(=O)N[C@@H](C)C(N)=O)[C@@H](C)O)NC(=O)[C@H](CCCCN)NC(=O)[C@H](CCCNC(=N)N)NC(=O)[C@H](C)NC(=O)[C@H]([C@@H](C)O)NC1=O [compound 11] | > 100 | 157 | > 100 | 125
